# In patent publication US20220339243A1, “COMPOSITIONS AND SYNERGISTIC METHODS FOR TREATING INFECTIONS” (BioAegis Therapeutics Inc., priority 2019, published 2022):
# What was measured:
# P. aeruginosa UNC-D [1] = experiment: Minimum inhibitory concentrations of the UNC-D strain; type: cell-based; conditions: for MIC: Pseudomonas aeruginosa, read-out: Minimum inhibitory concentration
# Method: P. aeruginosa UNC-D is a sputum isolate from a patient with cystic fibrosis. [Lawrenz M B, et al. Pathog. Dis. 73 (2015)]. Bacteria were cultured on trypticase soy agar (TSA) plates and in Lennox broth at 37° C. with shaking of broth cultures. […] Bacteria were prepared for animal challenge studies by culturing bacteria in Lennox broth overnight and washing the bacteria into 1×PBS before diluting to a final concentration based on OD600-based estimates and a final 50 μl delivery dose. Bacterial inocula were confirmed by serial dilution and colony enumeration on TSA plates.
# S. pneumoniae isolates = conditions: pediatric population; Cai et al. 2018; cited from earlier work
# P. aeruginosa UNC-D [2] = experiment: Multidrug-resistant P. aeruginosa pneumonia in neutropenic BALB/c mice; type: in vivo
# [3] = tested on: Streptococcus pneumoniae type 14; conditions: cited from earlier work
# [4] = tested on: Streptococcus pneumoniae type 14; experiment: In vitro bacterial growth, 1 h culture; type: cell-based; conditions: PEN 16 μg/ml, pGSN 250 μg/ml, average of 2 replicates
# [5] = tested on: Streptococcus pneumoniae type 14; experiment: Antibiotic-resistant pneumococcal pneumonia, CD1 mice, delayed treatment; type: in vivo
# [6] = tested on: Streptococcus pneumoniae type 3; experiment: Antibiotic-sensitive pneumococcal pneumonia, CD1 mice, delayed treatment; type: in vivo; conditions: PEN 100 μg i.m. on days 2 and 3 after infection; FIG. 3B
compound,measurement,setting,value
C[C@H]1[C@H](NC(=O)/C(=N\OC(C)(C)C(=O)O)c2csc(N)n2)C(=O)N1S(=O)(=O)O [aztreonam],MIC,P. aeruginosa UNC-D [1],4 µg/mL
CC(C)(O/N=C(\C(=O)N[C@@H]1C(=O)N2C(C(=O)[O-])=C(C[n+]3ccccc3)CS[C@H]12)c1csc(N)n1)C(=O)O [ceftazidime],MIC,P. aeruginosa UNC-D [1],32 µg/mL
CC[C@H]1OC(=O)[C@H](C)[C@@H](O[C@H]2C[C@@](C)(OC)[C@@H](O)[C@H](C)O2)[C@H](C)[C@@H](O[C@@H]2O[C@H](C)C[C@H](N(C)C)[C@H]2O)[C@](C)(O)C[C@@H](C)C(=O)[C@H](C)[C@@H](O)[C@]1(C)O [erythromycin],resistance of S. pneumoniae isolates from invasive infections,S. pneumoniae isolates,96%
C[C@@H]1O[C@@H]1P(=O)(O)O [fosfomycin],MIC,P. aeruginosa UNC-D [1],256 µg/mL
C[C@@H](O)[C@H]1C(=O)N2C(C(=O)O)=C(SCCN=CN)C[C@H]12 [imipenem],MIC,P. aeruginosa UNC-D [1],16 µg/mL
C[C@@H](O)[C@H]1C(=O)N2C(C(=O)O)=C(S[C@@H]3CN[C@H](C(=O)N(C)C)C3)[C@H](C)[C@H]12 [meropenem],survival in each of experiments 1 and 2,P. aeruginosa UNC-D [2]; 1250 mg/kg/day of meropenem,≤ 50%
same,"mean pathology score (lung, maximum 16)","P. aeruginosa UNC-D [2]; 1250 mg/kg/day, two independent studies combined, FIG. 9C, p=0.0049",6.86
same,"near-normal lung histopathology, surviving mice as the denominator",P. aeruginosa UNC-D [2]; 26/35 vs 38/46,74.3%
same,"overall survival, all dosing groups in the 3 experiments combined",P. aeruginosa UNC-D [2]; 35/64 without and 46/64 with rhu-pGSN,55%
same,overall survival with minor lung injury (pathology scores ≤2),"P. aeruginosa UNC-D [2]; all meropenem doses, three experiments, 26/64 vs 38/64, FIG. 10",41%
same,spread to spleen / splenic counts,"P. aeruginosa UNC-D [2]; both studies, combined data, pGSN given with meropenem",controlled spread from lung to spleen
same,"survival, third experiment","P. aeruginosa UNC-D [2]; different lot of meropenem, meropenem only group",75%
same,"survival with near-normal lungs, control survival rate between 25% and 75%","P. aeruginosa UNC-D [2]; exploratory post-hoc analysis, 12/32 vs 27/32",37.5%
same,"survival for 7 days, two sequential studies combined","P. aeruginosa UNC-D [2]; meropenem 1250 mg/kg/day s.c. q8h 5 days, rhu-pGSN 12 mg/day i.p. days -1 to +5, FIG. 7C",31%
same,time to restoration of body temperature to 95° F. in survivors,"P. aeruginosa UNC-D [2]; two studies with survival advantage, FIG. 11",3-5 days post-infection
same,MIC,P. aeruginosa UNC-D [1],8 µg/mL
CCN1CCN(C(=O)N[C@@H](C(=O)N[C@@H]2C(=O)N3[C@@H]2SC(C)(C)[C@@H]3C(=O)O)c2ccccc2)C(=O)C1=O [piperacillin],MIC,P. aeruginosa UNC-D [1],16 µg/mL
NC[C@H]1O[C@H](O[C@H]2[C@H](O)[C@@H](O[C@H]3O[C@H](CO)[C@@H](O)[C@H](N)[C@H]3O)[C@H](N)C[C@@H]2N)[C@H](N)C[C@@H]1O [tobramycin],MIC,P. aeruginosa UNC-D [1],32 µg/mL
colistin,Minimum inhibitory concentration,P. aeruginosa UNC-D [1],1 µg/mL
penicillin,minimum inhibitory concentration (MIC),[3],8 µg/mL
same,increase in bacterial CFU,[4],105000 CFU
same,total lavage neutrophils,"[5]; lung lavage 48 hours after infection, single dose, n=5-6/group",153±74 ×10E4
same,survival (final four experiments),"[5]; treatment from 24 h after infection, daily for 9 days, pGSN 5 mg i.p., PEN 1 mg i.m., FIG. 4A",no benefit
same,survival,[6],100%
trimethoprim-sulfamethoxazole,resistance of S. pneumoniae isolates from invasive infections,S. pneumoniae isolates,79%
